{"source": "paper PMC3240648", "about": "“Inhibition of Influenza A Virus (H1N1) Fusion by Benzenesulfonamide Derivatives Targeting Viral Hemagglutinin” (PLoS ONE, 2011)", "key": {"influenza virus [1]": {"tested_on": "influenza virus", "assay_type": "cell-based", "conditions": "for reduction of virus yield: 3.16 µM, 48 hours, MDCK, TCID50"}, "[2]": {"target": "hemagglutinin of influenza virus (Influenza A virus (H1N1), UniProt Q0HD60)", "sequence (Q0HD60 18-343, added parts left off)": "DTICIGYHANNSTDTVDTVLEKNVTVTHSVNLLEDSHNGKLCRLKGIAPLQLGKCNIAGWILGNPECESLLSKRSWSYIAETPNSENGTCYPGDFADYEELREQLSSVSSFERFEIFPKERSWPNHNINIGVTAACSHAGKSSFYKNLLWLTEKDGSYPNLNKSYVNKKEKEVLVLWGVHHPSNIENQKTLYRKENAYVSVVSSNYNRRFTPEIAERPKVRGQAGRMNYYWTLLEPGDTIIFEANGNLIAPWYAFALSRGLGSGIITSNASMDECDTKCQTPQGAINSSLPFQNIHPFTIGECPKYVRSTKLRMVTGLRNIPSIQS", "assay_type": "cell-based", "conditions": "for effect on hemolysis (negative controls): data not shown"}, "[3]": {"tested_on": "Influenza A/Mal/302/54 (H1N1)", "experiment": "microbe, parasite or virus in culture", "assay_type": "cell-based", "conditions": "H1N1, MDCK, 72 h, read-out: CPE (EC50) A/Mal/302/54 (H1N1)"}, "[4]": {"tested_on": "Influenza A/Weiss/43 (H1N1)", "assay_type": "cell-based, Influenza A virus"}, "[5]": {"tested_on": "Influenza A/Human/Hubei/3/2005 (H3N2)", "experiment": "microbe, parasite or virus in culture", "assay_type": "cell-based, Influenza A virus", "conditions": "for EC50: Influenza A virus, H3N2, MDCK, 72 h, read-out: CPE (EC50) A/Human/Hubei/3/2005 (H3N2)"}, "[6]": {"tested_on": "Influenza A/PR/8/34 (H1N1)", "experiment": "microbe, parasite or virus in culture", "assay_type": "cell-based", "conditions": "MDCK, 72 h, read-out: CPE (EC50) A/PR/8/34 (H1N1)"}, "[7]": {"target": "Bromelain-cleaved HA (BHA) (Influenza A virus (H1N1), UniProt Q0HD60)", "sequence (Q0HD60 18-343, added parts left off)": "as above", "assay_type": "biochemical"}, "[8]": {"tested_on": "Influenza A/Weiss/43 (H1N1)", "assay_type": "cell-based, Influenza A virus", "remark": "listed apart in the source"}, "[9]": {"tested_on": "Influenza A/Hongkong/8/68 (H3N2)", "experiment": "microbe, parasite or virus in culture", "assay_type": "cell-based, Influenza A virus", "conditions": "for EC50: Influenza A virus, H3N2, MDCK, 72 h, read-out: CPE (EC50) A/Hongkong/8/68 (H3N2)"}, "[10]": {"tested_on": "viral hemagglutinin binding to sialic acid receptors of chicken erythrocytes", "assay_type": "cell-based, influenza virus", "conditions": "10 µM, regardless of viral dilution; data not shown"}, "influenza virus [11]": {"tested_on": "influenza virus", "experiment": "microbe, parasite or virus in culture", "assay_type": "cell-based", "conditions": "unidentified influenza virus, read-out: in vitro EC90"}, "[12]": {"experiment": "Repeated oral dosing of mice without virus challenge (survival, body weight)", "assay_type": "in vivo", "conditions": "200 mg/kg and 50 mg/kg orally twice a day for 7 days, monitored 14 days", "source_text": "Survival of the treated animals and body weight were monitored for 14 days starting from the first day of compound dosing."}, "in vivo": {"experiment": "in vivo", "conditions": "male, CD-1, mouse"}, "[13]": {"conditions": "mouse, in vivo"}, "[14]": {"tested_on": "Influenza A/New Jersey/8/76 (H1N1)", "experiment": "microbe, parasite or virus in culture", "assay_type": "cell-based", "conditions": "H1N1, MDCK, 72 h, read-out: CPE (EC50) A/New Jersey/8/76 (H1N1)"}}, "note": "Entries after “also recorded” stand apart in the source; their conditions may differ.", "data": [{"smiles": "CCOC(=O)C1=C[C@@H](OC(CC)CC)[C@H](NC(C)=O)[C@@H](N)C1", "note": "[Oseltamivir]", "values": [{"measurement": "reduction of virus yield", "setting": "influenza virus [1]", "result": 5, "unit": "log"}, {"measurement": "effect on hemolysis (negative controls)", "setting": "[2]", "result": "did not show any effect on hemolysis"}]}, {"smiles": "CC1(C)CC(O)CC(C)(CNc2cccc(S(N)(=O)=O)c2)C1", "note": "(stereo not shown) [RO5464466, 3-[(5-Hydroxy-1,3,3-trimethyl-cyclohexylmethyl)-amino]-benzenesulfonamide]", "values": [{"measurement": "EC50", "setting": "[3]", "result": 660, "unit": "nM"}, {"measurement": "plaque formation", "setting": "[4]", "result": "completely protected cell monolayer against cell death (no visible plaques); also recorded: still inhibited virus infection"}, {"measurement": "inhibitory effect on replication of A/Human/Hubei/3/2005 (H3N2) in CPE assay", "setting": "[5]", "result": "failed to exhibit an apparent inhibitory effect"}, {"measurement": "EC50", "setting": "[5]", "result": "> 100000", "unit": "nM"}, {"measurement": "EC50", "setting": "[6]", "result": 580, "unit": "nM"}, {"measurement": "BHA trypsin sensitivity", "setting": "[7]", "result": "+"}, {"measurement": "protection of BHA from trypsin digestion after acidification", "setting": "[7]", "result": "completely protected HA from trypsin digestion"}, {"measurement": "protection of BHA from trypsin-caused degradation at different pH", "setting": "[7]", "result": "effectively protected BHA from trypsin-caused degradation throughout the tested pH values, except pH 4.5"}, {"measurement": "effect on virus replication in one cycle", "setting": "[8]", "result": "completely blocks virus replication"}, {"measurement": "dynamics of progeny virus production", "setting": "influenza virus [1]", "result": "strong inhibition at all time points"}, {"measurement": "reduction of virus yield", "setting": "influenza virus [1]", "result": 8, "unit": "log"}, {"measurement": "inhibitory effect on replication of A/Hongkong/8/68 (H3N2) in CPE assay", "setting": "[9]", "result": "failed to exhibit an apparent inhibitory effect"}, {"measurement": "EC50", "setting": "[9]", "result": "> 100000", "unit": "nM"}, {"measurement": "HA-mediated hemolysis", "setting": "[2]; 10 µM, pH 5.03, 5.05, 5.1 and 5.2", "result": "completely blocked"}, {"measurement": "inhibitory effect on hemagglutination", "setting": "[10]", "result": "did not have an inhibitory effect on hemagglutination"}]}, {"smiles": "CC1(C)C[C@H](O)C[C@](C)(CNc2ccc(Cl)c(S(N)(=O)=O)c2)C1", "note": "[RO5487624]", "values": [{"measurement": "EC50", "setting": "[3]", "result": 450, "unit": "nM"}, {"measurement": "EC90", "setting": "influenza virus [11]", "result": 300, "unit": "nM"}, {"measurement": "animal death and body weight changes", "setting": "[12]", "result": "did not find any animal death and statistically significant body weight changes"}, {"measurement": "EC50", "setting": "[5]", "result": "> 100000", "unit": "nM"}, {"measurement": "bioavailability", "setting": "in vivo", "result": "> 70", "unit": "%"}, {"measurement": "AUC(0-inf)", "setting": "in vivo; iv, 2 mg/kg", "result": 629, "unit": "ng·h/mL"}, {"measurement": "AUC(0-t)", "setting": "in vivo; iv, 2 mg/kg", "result": 587, "unit": "ng·h/mL"}, {"measurement": "C max and AUC in plasma versus oral dose", "setting": "[13]", "result": "increased in a dose-dependent manner"}, {"measurement": "EC50", "setting": "[6]", "result": 210, "unit": "nM"}, {"measurement": "BHA trypsin sensitivity", "setting": "[7]", "result": "+"}, {"measurement": "protection of BHA from trypsin digestion after acidification", "setting": "[7]", "result": "completely protected HA from trypsin digestion"}, {"measurement": "EC50", "setting": "[14]", "result": 90, "unit": "nM"}, {"measurement": "EC50", "setting": "[9]", "result": "> 100000", "unit": "nM"}]}, {"smiles": "NC(=O)c1ncn([C@@H]2O[C@H](CO)[C@@H](O)[C@H]2O)n1", "note": "[Ribavirin]", "values": [{"measurement": "protection of BHA from trypsin digestion after acidification", "setting": "[7]", "result": "failed to show a protective effect on BHA"}, {"measurement": "dynamics of progeny virus production", "setting": "influenza virus [1]", "result": "became weaker"}, {"measurement": "inhibition of progeny virus production", "setting": "influenza virus [1]", "result": "strongly inhibited progeny virus production"}, {"measurement": "effect on hemolysis (negative controls)", "setting": "[2]", "result": "did not show any effect on hemolysis"}]}]}
